Test results taken from patent US8247610B2, “Amine linked modulators of γ-secretase” (Janssen Pharmaceutica N.V., priority 2007, dated 2012).
pEC50: −log10 of the molar value.

Biological target: T1, γ-secretase (Homo sapiens, UniProt P49768)
T1 construct: endogenous in cells; host or cells: SKNBE2 cells carrying APP 695 wild type
Experiment: Screening for γ-secretase-modulating activity in SKNBE2 cells carrying the APP 695 wild type
Type: cell-based
Details: SKNBE2 cells carrying APP 695 wild type; for % printed in the EC50 column, no concentration given: concentration not given
Protocol: Screening of the Compounds of the Invention for γ-Secretase-Modulating Activity
Screening was carried out using SKNBE2 cells carrying the APP 695—wild type, grown in DMEM/NUT-mix F12 (HAM) provided by Gibco (cat no. 31330-38) containing 5% Serum/Fe supplemented with 1% non-essential amino acids.
Cells were grown to near confluency.
The screening was performed using the assay as described in Citron et al (1997) Nature Medicine 3: 67.

| Compound | inhibition at 0.3 µM [%] | pEC50 | also measured |
| --- | --- | --- | --- |
| CC(C)CCN(Cc1ccc(C#N)cc1)c1cc(-c2ccc(C(F)(F)F)cc2)cc([C@@H](CC(C)C)C(=O)O)c1 [Compound 48, (R) 2-{5-[(4-Cyano-benzyl)-(3-methyl-butyl)-amino]-4′-trifluoromethyl-biphenyl-3-yl}-4-methyl-pentanoic acid] | 31 |  |  |
| CC(C)CCN(Cc1cc(C(F)(F)F)cc(C(F)(F)F)c1)c1cc(-c2ccc(C(F)(F)F)cc2)cc([C@@H](CC(C)C)C(=O)O)c1 [Compound 49, (R) 2-{5-[(3,5-Bis-trifluoromethyl-benzyl)-(3-methyl-butyl)-amino]-4′-trifluoromethyl-biphenyl-3-yl}-4-methyl-pentanoic acid] |  | 6.66 |  |
| CC(C)CCC(c1cc(F)cc(F)c1)N(C)c1cc(-c2ccc(C(F)(F)F)cc2)cc(C(CC(C)C)C(=O)O)c1 (stereo not drawn) [Compound 50, 2-(5-{[1-(3,5-Difluoro-phenyl)-4-methyl-pentyl]-methyl-amino}-4′-trifluoromethyl-biphenyl-3-yl)-4-methyl-pentanoic acid] | 65 |  |  |
| CC(C)CC(C(=O)O)c1cc(NCc2ccc(F)cc2C(F)(F)F)cc(-c2ccc(C(F)(F)F)cc2)c1 (stereo not drawn) [Compound 51, 2-(5-(4-fluoro-2-(trifluoromethyl)benzylamino)-4′-(trifluoromethyl)biphenyl-3-yl)-4-methylpentanoic acid] |  | 6.19 |  |
| CC(C)CC(C(=O)O)c1cc(-c2ccc(C(F)(F)F)cc2)cc(N2CCc3ccccc3C2)c1 (stereo not drawn) [Compound 53, 4-Methyl-2-[-5-(3,4-dihydroisoquinolin-2(1H)-yl)-4′-(trifluoromethyl)biphenyl-3-yl]-pentanoic acid] | 0 |  |  |
| CC(C)CCN(Cc1cc(-c2ccc(C(F)(F)F)cc2)cc(C(CC(C)C)C(=O)O)c1)Cc1cc(F)c(F)c(F)c1 (stereo not drawn) [Compound 54, 4-Methyl-2-(5-{[(3-methyl-butyl)-(3,4,5-trifluoro-benzyl)-amino]-methyl}-4′-trifluoromethyl-biphenyl-3-yl)-pentanoic acid] |  | 6.57 |  |
| CC(C)CCN(Cc1ccc(C(F)(F)F)cc1)Cc1cc(-c2ccc(C(F)(F)F)cc2)cc(C(CC(C)C)C(=O)O)c1 (stereo not drawn) [Compound 56, 4-Methyl-2-(5-{[(3-methyl-butyl)-(4-trifluoromethyl-benzyl)-amino]-methyl}-4′-trifluoromethyl-biphenyl-3-yl)-pentanoic acid] |  | 6.66 |  |
| CC(C)CCN(Cc1cc(CC(=O)O)cc(-c2ccc(C(F)(F)F)cc2)c1)Cc1ccc(Cl)c(F)c1 [Compound 57, (5-{[(4-Chloro-3-fluoro-benzyl)-(3-methyl-butyl)-amino]-methyl}-4′-trifluoromethyl-biphenyl-3-yl)-acetic acid] | 11 |  |  |
| CC(C)CCN(Cc1ccc(C(F)(F)F)cc1)Cc1cc(CC(=O)O)cc(-c2ccc(C(F)(F)F)cc2)c1 [Compound 58, (5-{[(3-Methyl-butyl)-(4-trifluoromethyl-benzyl)-amino]-methyl}-4′-trifluoromethyl-biphenyl-3-yl)-acetic acid] |  | 6.23 |  |
| CC(C)CCN(Cc1cc(F)cc(F)c1)Cc1cc(-c2ccc(C(F)(F)F)cc2)cc(C(CC(C)C)C(=O)O)c1 (stereo not drawn) [Compound 59, 2-(5-{[(3,5-Difluoro-benzyl)-(3-methyl-butyl)-amino]-methyl}-4′-trifluoromethyl-biphenyl-3-yl)-4-methyl-pentanoic acid] |  | 6.62 |  |
| CC(C)CCN(Cc1cc(-c2ccc(C(F)(F)F)cc2)cc(C(CC(C)C)C(=O)O)c1)Cc1ccc(F)cc1C(F)(F)F (stereo not drawn) [Compound 60, 2-(5-{[(4-Fluoro-2-trifluoromethyl-benzyl)-(3-methyl-butyl)-amino]-methyl}-4′-trifluoromethyl-biphenyl-3-yl)-4-methyl-pentanoic acid] |  | 6.52 |  |
| CC(C)CCN(Cc1cc(-c2ccc(C(F)(F)F)cc2)cc(C(CC(C)C)C(=O)O)c1)Cc1cccc(C(F)(F)F)c1 (stereo not drawn) [Compound 61, 4-Methyl-2-(5-{[(3-methyl-butyl)-(3-trifluoromethyl-benzyl)-amino]-methyl}-4′-trifluoromethyl-biphenyl-3-yl)-pentanoic acid] |  | 6.41 |  |
| CC(C)CCN(Cc1ccc(F)cc1)Cc1cc(-c2ccc(C(F)(F)F)cc2)cc(C(CC(C)C)C(=O)O)c1 (stereo not drawn) [Compound 62, 2-(5-{[(4-Fluoro-benzyl)-(3-methyl-butyl)-amino]-methyl}-4′-trifluoromethyl-biphenyl-3-yl)-4-methyl-pentanoic acid] |  | 6.89 |  |
| CC(C)CCN(Cc1cc(-c2ccc(C(F)(F)F)cc2)cc([C@@H](CC(C)C)C(=O)O)c1)c1ccc(C(F)(F)F)cc1 [Compound 63, 4-Methyl-2-(5-{[(3-methyl-butyl)-(4-trifluoromethyl-phenyl)-amino]-methyl}-4′-trifluoromethyl-biphenyl-3-yl)-pentanoic acid] |  | 6.60 |  |
| CC(C)CC(C(=O)O)c1cc(-c2ccc(C(F)(F)F)cc2)cc(N(C)c2ccc(Cl)cc2)c1 (stereo not drawn) [Example 1, 2-{5-[(4-Chloro-phenyl)-methyl-amino]-4′-trifluoromethyl-biphenyl-3-yl}-4-methyl-pentanoic acid] |  | 6.21 |  |
| CC(C)CC(C(=O)O)c1cc(-c2ccc(C(F)(F)F)cc2)cc(N(C)c2cccc(C(F)(F)F)c2)c1 (stereo not drawn) [Example 2, 4-Methyl-2-{5-[methyl-(3-trifluoromethyl-phenyl)-amino]-4′-trifluoromethyl-biphenyl-3-yl}-pentanoic acid] |  | 6.66 |  |
| CC(C)CC(C(=O)O)c1cc(-c2ccc(C(F)(F)F)cc2)cc(N(C)c2cc(F)cc(F)c2)c1 (stereo not drawn) [Example 3, 2-{5-[(3,5-Difluoro-phenyl)-methyl-amino]-4′-trifluoromethyl-biphenyl-3-yl}-4-methyl-pentanoic acid] |  | 6.35 |  |
| CC(C)CC(C(=O)O)c1cc(-c2ccc(C(F)(F)F)cc2)cc(N(C)c2ccc(C(C)C)cc2)c1 (stereo not drawn) [Example 7, 2-{5-[(4-Isopropyl-phenyl)-methyl-amino]-4′-trifluoromethyl-biphenyl-3-yl}-4-methyl-pentanoic acid] |  |  | % printed in the EC50 column, no concentration given: 8% |
| CC(C)CC(C(=O)O)c1cc(-c2ccc(C(F)(F)F)cc2)cc(N(C)c2ccc(C#N)cc2)c1 (stereo not drawn) [Example 8, 2-{5-[(4-Cyano-phenyl)-methyl-amino]-4′-trifluoromethyl-biphenyl-3-yl}-4-methyl-pentanoic acid] |  |  | % printed in the EC50 column, no concentration given: −0% |
| CC(C)CC(C(=O)O)c1cc(-c2ccc(C(F)(F)F)cc2)cc(N(C)c2ccc(Cl)c(C(F)(F)F)c2)c1 (stereo not drawn) [Example 9, 2-{5-[(4-Chloro-3-trifluoromethyl-phenyl)-methyl-amino]-4′-trifluoromethyl-biphenyl-3-yl}-4-methyl-pentanoic acid] |  | 6.48 |  |
| CC(C)CC(C(=O)O)c1cc(-c2ccc(C(F)(F)F)cc2)cc(N(C)c2cc(C(F)(F)F)cc(C(F)(F)F)c2)c1 (stereo not drawn) [Example 10, 2-{5-[(3,5-Bis-trifluoromethyl-phenyl)-methyl-amino]-4′-trifluoromethyl-biphenyl-3-yl}-4-methyl-pentanoic acid] |  | 6.72 |  |
| CC(C)CC(C(=O)O)c1cc(-c2ccc(C(F)(F)F)cc2)cc(N(C)c2ccc(F)cc2C(F)(F)F)c1 (stereo not drawn) [Example 11, 2-{5-[(4-Fluoro-2-trifluoromethyl-phenyl)-methyl-amino]-4′-trifluoromethyl-biphenyl-3-yl}-4-methyl-pentanoic acid] | 23 |  |  |
| CC(C)CC(C(=O)O)c1cc(-c2ccc(C(F)(F)F)cc2)cc(N(C)c2cc(C(F)(F)F)ccc2C(F)(F)F)c1 (stereo not drawn) [Example 12, 2-{5-[(2,5-Bis-trifluoromethyl-phenyl)-methyl-amino]-4′-trifluoromethyl-biphenyl-3-yl}-4-methyl-pentanoic acid] |  | 6.80 |  |
| CCN(c1cc(-c2ccc(C(F)(F)F)cc2)cc(C(CC(C)C)C(=O)O)c1)c1cccc(C(F)(F)F)c1 (stereo not drawn) [Example 13, 2-{5-[Ethyl-(3-trifluoromethyl-phenyl)-amino]-4′-trifluoromethyl-biphenyl-3-yl}-4-methyl-pentanoic acid] | 16 |  |  |
| CCN(c1ccc(Cl)cc1)c1cc(-c2ccc(C(F)(F)F)cc2)cc(C(CC(C)C)C(=O)O)c1 (stereo not drawn) [Example 14, 2-{5-[(4-Chloro-phenyl)-ethyl-amino]-4′-trifluoromethyl-biphenyl-3-yl}-4-methyl-pentanoic acid] | 14 |  |  |
| CC(C)CC(C(=O)O)c1cc(-c2ccc(C(F)(F)F)cc2)cc(N(C)c2ccc(C(F)(F)F)nc2)c1 (stereo not drawn) [Example 15, 4-Methyl-2-{5-[methyl-(6-trifluoromethyl-pyridin-3-yl)-amino]-4′-trifluoromethyl-biphenyl-3-yl}-pentanoic acid] |  | 6.07 |  |
| CC(C)CC(C(=O)O)c1cc(-c2ccc(C(F)(F)F)cc2)cc(N(C)c2cc[n+](C)cc2)c1 (stereo not drawn) [Example 16, 4-{[5-(1-Carboxy-3-methyl-butyl)-4′-trifluoromethyl-biphenyl-3-yl]-methyl-amino}-1-methyl-pyridinium] | 13 |  |  |
| CC(C)CCN(c1cc(-c2ccc(C(F)(F)F)cc2)cc(C(CC(C)C)C(=O)O)c1)c1cccc(C(F)(F)F)c1 (stereo not drawn) [Example 17, 4-Methyl-2-{5-[(3-methyl-butyl)-(3-trifluoromethyl-phenyl)-amino]-4′-trifluoromethyl-biphenyl-3-yl}-pentanoic acid] |  | 6.59 |  |
| CC(C)CCN(c1ccc(Cl)cc1)c1cc(-c2ccc(C(F)(F)F)cc2)cc(C(CC(C)C)C(=O)O)c1 (stereo not drawn) [Example 18, 2-{5-[(4-Chloro-phenyl)-(3-methyl-butyl)-amino]-4′-trifluoromethyl-biphenyl-3-yl}-4-methyl-pentanoic acid] |  | 6.82 |  |
| CC(C)CC(C(=O)O)c1cc(-c2ccc(C(F)(F)F)cc2)cc(N(C)c2ccc(C(F)(F)F)cc2)c1 (stereo not drawn) [Example 19, 4-Methyl-2-{5-[methyl-(4-trifluoromethyl-phenyl)-amino]-4′-trifluoromethyl-biphenyl-3-yl}-pentanoic acid] | 22 |  |  |
